Consider eight compounds from patent US20250302912A1, “COMPOSITION INCLUDING PEPTIDE COMPOUND AND SURFACTANT” (CHUGAI SEIYAKU KABUSHIKI KAISHA, priority 2021, published 2025).

A short description of data set [1]: Evaluation of Caco-2 membrane permeability. The following applies: human, Caco-2, pH 6.5, Permeability coefficient (Caco-2 Papp), FaSSIF/HBSS buffer pH 6.5 apical. Background: Passage across Caco-2 layers is used to estimate intestinal permeability.
Procedure: Caco-2 cells were cultured on 96-well Transwell for 3 weeks. […] Each well was shaken at 5% CO2, 37° C., 80 rpm, and at 180 minutes after the start, a sample on the Basal side was taken and the permeation amount of the compound was measured by liquid chromatography-mass spectrometry (LC/MS/MS). From the permeation amount, the permeability coefficient (Caco-2 Papp (cm/sec)) was calculated.
As comparative examples, the permeation amount was measured by the same procedure as described above except that a FaSSIF/HBSS buffer (pH 6.5) without 5 mM lauroyl-L-carnitine was used. […] From the measured permeation amount, the permeability coefficient was calculated.
Data set [2] in a line: Evaluation of solubility in 50 mM phosphate buffer (PPB, pH 6.5). The format is physicochemical. Particulars: 50 mM phosphate buffer pH 6.5, 37° C., 1 atm, 22 to 24 hours. As for the experimental part: To an excess amount of lyophilized powder of the compound, 50 mM phosphate buffer (PPB: Phosphate buffer, pH 6.5) is added, and after shaking (37° C., 1 atm, 1800 rpm, for 22 to 24 hours), the mixture is filtered with a filter, and the compound concentration of the filtrate is measured by LC/MS/MS. Solubility (μg/mL) is calculated from the measured compound concentration.
Solubility (g/mL) was calculated from the measured compound concentration.

The test system of another data set is claudin protein. Particulars: Drug Metab. Pharmacokinet., 26 (2): 162170 (2011); cited from earlier work.
Setting [3] is: Without 5 mM lauroyl-L-carnitine.

Molecules are shown by their SMILES. In brackets after ≈: the same amount, converted by molar mass. Bridge positions count the residues as written; N and C are the ends. Square brackets hold non-standard residues; d marks the D form. Peptide text beside a SMILES is read from it. * marks the point of attachment. Ala(4-thiazolyl) = N[C@@H](Cc1cscn1)C(=O)O; NMeNle(6-CHF2) = CN[C@@H](CCCCC(F)F)C(=O)O; Phe(3-Cl) = N[C@@H](Cc1cccc(Cl)c1)C(=O)O; NMehPhe = CN[C@@H](CCc1ccccc1)C(=O)O; NMeF = CN[C@@H](Cc1ccccc1)C(=O)O; NMeD = CN[C@@H](CC(=O)O)C(=O)O; NMeS = CN[C@@H](CO)C(=O)O; Pip = O=C(O)[C@@H]1CCCCN1; Nle = CCCC[C@H](N)C(=O)O; Pyrrolidide = C1CCN(*)C1; dNMeA = CN[C@H](C)C(=O)O; Propyl = CCC* Where only a bound is given, the exact number is not on record here.

`CC[C@H](C)[C@@H]1NC(=O)[C@H](CC(C)C)N(C)C(=O)CC(C(=O)N2CCOCC2)N(C)C(=O)[C@H](C2CCCC2)N(C)C(=O)C2(CCCC2)NC(=O)[C@@H]2CCCN2C(=O)[C@H](CCc2ccc(C(F)(F)F)c(Cl)c2)NC(=O)CN(C)C(=O)[C@H](CC2CCCCC2)N(C)C(=O)[C@@H]2CCN2C(=O)[C@H](C)N(C)C1=O` (single isomer, unassigned) [Compound 2]: the Papp A→B – broadly, how fast a substance crosses the layer from the apical side – at 180 min in data set [1] (With 5 mM lauroyl-L-carnitine) is 0.265 ×10⁻⁶ cm/s; in data set [1] (setting [3]), 0.0491 ×10⁻⁶ cm/s.

Turning to `CC[C@H](C)[C@@H]1NC(=O)[C@H](CC(C)C)N(C)C(=O)CC(C(=O)N2CCCCC2)N(C)C(=O)[C@H](C2CCCC2)N(C)C(=O)C2(CCCC2)NC(=O)[C@@H]2CCCN2C(=O)[C@H](CCc2ccc(C(F)(F)F)c(Cl)c2)NC(=O)CN(C)C(=O)[C@H](CC2CCCCC2)N(C)C(=O)[C@@H]2CCN2C(=O)[C@H](C)N(C)C1=O` (single isomer, unassigned) [Compound 8], the Papp A→B at 180 min in data set [1] (With 5 mM lauroyl-L-carnitine) is 0.154 ×10⁻⁶ cm/s; in data set [1] (setting [3]), 0.042 ×10⁻⁶ cm/s.

With `CC[C@H](C)[C@@H]1NC(=O)C(CC(C)C)N(C)C(=O)CC(C(=O)N(C)C)N(C)C(=O)[C@H](C2CCCC2)N(C)C(=O)C(C)NC(=O)C(C)N(C)C(=O)[C@H](CCc2ccc(C(F)(F)F)c(Cl)c2)NC(=O)CN(C)C(=O)[C@H](CC2CCCCC2)N(C)C(=O)[C@@H]2CCN2C(=O)[C@H](C)N(C)C1=O` (single isomer, unassigned) [Compound 9], the Papp A→B at 180 min in data set [1] (With 5 mM lauroyl-L-carnitine) was found to be 0.0214 ×10⁻⁶ cm/s; in data set [1] (setting [3]), 0.00949 ×10⁻⁶ cm/s.

In turn, `CC[C@H](C)[C@@H]1NC(=O)[C@H](CC(C)C)N(C)C(=O)CC(C(=O)N2CCOCC2)N(C)C(=O)[C@H](C2CCCC2)N(C)C(=O)C2(CCCC2)NC(=O)[C@@H]2CCCN2C(=O)[C@H](CCc2ccc(C(F)(F)F)c(Cl)c2)NC(=O)CN(C)C(=O)[C@H](C2CCCC2)N(C)C(=O)[C@@H]2CCN2C(=O)[C@H](C)NC1=O` (single isomer, unassigned) [Compound 10] had a Papp A→B at 180 min in data set [1] (setting [3]) of less than 0.00976 ×10⁻⁶ cm/s.

Consider `CC[C@H](C)[C@@H]1NC(=O)[C@H](Cc2ccccc2)N(C)C(=O)CN(C)C(=O)C[C@@H](C(=O)N2CCCCC2)NC(=O)[C@H](CC(C)C)N(C)C(=O)[C@H](COC(C)(C)C)NC(=O)[C@H](CC(C)C)N(C)C(=O)[C@H](CCc2ccccc2)N(C)C(=O)CN(C)C(=O)[C@H]([C@@H](C)O)NC(=O)[C@H](CC(C)C)N(C)C1=O` (stereo in doubt) [Compound 7], for which the apparent permeability from apical to basolateral (Papp A→B) at 180 min in data set [1] (With 5 mM lauroyl-L-carnitine) is 0.526 ×10⁻⁶ cm/s; in data set [1] (setting [3]), less than 0.0944 ×10⁻⁶ cm/s.

For `CC[C@H](C)[C@@H]1NC(=O)[C@H](Cc2ccccc2)N(C)C(=O)[C@H](Cc2cscn2)NC(=O)[C@@H](C)N(C)C(=O)C[C@@H](C(=O)N2CCCC2)NC(=O)[C@@H]2CCCN2C(=O)[C@H](CCCCC(F)F)N(C)C(=O)CNC(=O)[C@H](Cc2ccccc2)N(C)C(=O)[C@@H]2CCCN2C(=O)[C@H](CCc2ccccc2)N(C)C1=O` [Compound 4] ([dNMeA][Ala(4-thiazolyl)][NMeF]I[NMehPhe]P[NMeF]G[NMeNle(6-CHF2)]PD-Pyrrolidide; lactam N-11), the solubility (in general, the concentration that dissolves in the medium under given conditions) in data set [2] was determined as 103 µg/mL (≈ 71.2 µM). The values for the Papp A→B at 180 min in data set [1] (With 5 mM lauroyl-L-carnitine) and in data set [1] (setting [3]) were 0.012 ×10⁻⁶ cm/s and less than 0.0107 ×10⁻⁶ cm/s, respectively.

For the compound `CCCC[C@@H]1NC(=O)[C@@H]2CCCN2C(=O)[C@H](CCCC)NC(=O)[C@@H](C)N(C)C(=O)C[C@@H](C(=O)N2CCCC2)N(C)C(=O)[C@@H]2CCCN2C(=O)[C@H]([C@@H](C)CC)NC(=O)[C@@H]2CCCCN2C(=O)[C@H](Cc2cccc(Cl)c2)NC(=O)[C@H](COCCC)N(C)C(=O)[C@H](Cc2ccccc2)N(C)C1=O` [Compound 5] ([dNMeA][Nle]P[Nle][NMeF][NMeS](Propyl)[Phe(3-Cl)][Pip]IP[NMeD]-Pyrrolidide; lactam N-11), the solubility in data set [2] is less than 1.09 µg/mL. Besides, the Papp A→B at 180 min in data set [1] (With 5 mM lauroyl-L-carnitine) came to 0.0264 ×10⁻⁶ cm/s; in data set [1] (setting [3]), 0.00372 ×10⁻⁶ cm/s.

For the compound `CCCCCCCCCCCC(=O)O[C@H](CC(=O)[O-])C[N+](C)(C)C` [lauroyl-L-carnitine], the “Effect on expression of claudin protein / tight junction” value in the data set with claudin protein was “suppresses the expression of claudin protein and thus expands the tight junction”.
